Test results taken from publication PMC8911884, “Discovery of Novel 3,4-Dihydro-2(1H)-Quinolinone Sulfonamide Derivatives as New Tubulin Polymerization Inhibitors with Anti-Cancer Activity” (Molecules, 2022).
Entries after “also recorded” stand apart in the source; their conditions may differ.

What was measured:
L02 = assay: MTT cytotoxicity assay, normal liver cells L02; format: cell-based; conditions: mean ± SD
Text: (§1) The MTT method was used to evaluate the anti-tumor activity and cytotoxic activity of all the synthesized compounds in four tumor cell lines (HeLa, HCT-116, A549 and HepG-2) and normal liver cells (L02). At the same time, the 5-fluorouracil(5-Fu) and CA-4 were used as positive references. […] Unfortunately, our target compound has a similar cytotoxicity to tumor cells and normal cells.
(§2) The HeLa, HCT-116, A549 and HepG-2 cells in the logarithmic growth phase were trypsinized, diluted with 10% DMEM medium and evenly seeded in a 96-well plate with 1 × 10^4 cells per well. We placed the inoculated 96-well plate in an incubator at 37 °C and 5% CO2 for 4 h. After the cells adhered to the wall, we removed the medium. We added 150 μL of medicated medium (1% DMEM) to each well of the experimental group, and the control group was added with an equal volume of solvent, with 3 replicate holes for each concentration. Then, we put it in the incubator and continued to incubate for 48 h. After that, we added MTT reagent in the dark, continued incubating for 4 h, discarded the supernatant, added 150 µL DMSO to each well and shook it for 10 min in the dark to fully dissolved the formazan. The absorbance was read at 492 nm by a microplate reader (ELx 800, BioTek, Highland Park, Winooski, VT, USA).
(§3) The inhibition rate (%) = (1-dosing hole OD value/control hole OD value); we drew a logarithmic curve diagram according to the inhibition rate and the dosing concentration to obtain the half inhibitory concentration.

HeLa = assay: MTT antiproliferative assay, HeLa; format: cell-based, human; conditions: 48 h, mean ± SD
Text: as §1, §2, §3

HCT116 = assay: MTT antiproliferative assay, HCT116; format: cell-based, human; conditions: mean ± SD
Text: as §1, §2, §3

A549 = assay: MTT antiproliferative assay, A549; format: cell-based, human; conditions: mean ± SD
Experimental: The MTT method was used to evaluate the anti-tumor activity and cytotoxic activity of all the synthesized compounds in four tumor cell lines (HeLa, HCT-116, A549 and HepG-2) and normal liver cells (L02).
as §2, §3

HepG-2 = assay: MTT antiproliferative assay, HepG-2; format: cell-based, human; conditions: mean ± SD
Text: as §1, §2, §3

[1] = system: HeLa, HCT-116, A549 and HepG-2; assay: MTT antiproliferative activity across the four tumor cell lines; format: cell-based, human; conditions: SAR discussion
Text: as §1
As shown in, at the beginning, we first synthesized the ortho and meta substituted compounds, D7, D8, D9, D11 and D15. […] Then, we decided to introduce para-substituted benzaldehyde. […] This stimulated our interest, so we continued to introduce -OCH3 substituted at different positions to explore the effect of -OCH3 substituted at different positions on the anti-tumor activity of the compound. […] In short, we obtained a compound named D13 with good anti-tumor activity, and it was worthy of further study.
as §2, §3

tubulin = target: T1, tubulin (Sus scrofa, UniProt P02550+P02554); assay: In vitro tubulin polymerization assay (fluorescence kit); format: biochemical; conditions: area under fluorescence curve, 37 °C, 40 min
T1 construct: purchased Cytoskeleton (Danvers, MA, USA) BK011P
T1 sequence (P02554 whole entry): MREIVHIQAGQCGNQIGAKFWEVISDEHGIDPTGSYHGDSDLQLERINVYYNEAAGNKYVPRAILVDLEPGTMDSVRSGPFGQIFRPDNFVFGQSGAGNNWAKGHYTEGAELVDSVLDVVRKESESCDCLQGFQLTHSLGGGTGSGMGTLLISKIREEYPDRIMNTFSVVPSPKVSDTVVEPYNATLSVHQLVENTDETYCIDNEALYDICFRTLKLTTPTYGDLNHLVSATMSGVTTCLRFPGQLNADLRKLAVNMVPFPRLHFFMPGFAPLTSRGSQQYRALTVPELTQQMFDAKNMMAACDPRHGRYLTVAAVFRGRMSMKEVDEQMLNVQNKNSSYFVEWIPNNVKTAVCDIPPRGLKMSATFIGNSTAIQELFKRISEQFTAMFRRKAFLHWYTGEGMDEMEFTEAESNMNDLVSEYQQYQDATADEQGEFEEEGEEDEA
T1 sequence (P02550 whole entry): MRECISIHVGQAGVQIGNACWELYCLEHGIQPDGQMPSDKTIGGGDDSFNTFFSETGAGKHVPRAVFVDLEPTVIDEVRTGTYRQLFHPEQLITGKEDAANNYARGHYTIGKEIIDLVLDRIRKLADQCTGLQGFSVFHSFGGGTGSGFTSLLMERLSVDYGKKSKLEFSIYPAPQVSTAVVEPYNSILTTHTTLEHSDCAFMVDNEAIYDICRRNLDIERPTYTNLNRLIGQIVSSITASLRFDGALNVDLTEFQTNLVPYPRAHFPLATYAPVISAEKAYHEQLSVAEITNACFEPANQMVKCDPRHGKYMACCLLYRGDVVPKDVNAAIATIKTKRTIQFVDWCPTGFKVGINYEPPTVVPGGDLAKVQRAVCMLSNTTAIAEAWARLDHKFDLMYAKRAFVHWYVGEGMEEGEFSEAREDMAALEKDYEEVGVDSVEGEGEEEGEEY

Compound | IC50 (L02; Homo sapiens, L02, 48 h) | IC50 (HeLa; Homo sapiens, HeLa) | IC50 (HCT116; Homo sapiens, HCT-116, 48 h) | IC50 (A549; Homo sapiens, A549, 48 h) | IC50 (HepG-2; Homo sapiens, HepG2, 48 h) | melting point | antiproliferative activity (in words) [1] | IC50 (tubulin) | IC50 (HeLa) | IC50 (L02; 48 h) | IC50 (HCT116; 48 h) | IC50 (A549; 48 h) | IC50 (HepG-2; 48 h)
COc1ccc(/C=C\c2cc(OC)c(OC)c(OC)c2)cc1O [CA-4, Combretastatin A-4, reference compound] | 0.15 ± 0.05 µM | 0.02 ± 0.001 µM | 0.04 ± 0.016 µM | 0.12 ± 0.023 µM | 0.05 ± 0.021 µM | – | – | – | – | – | – | – | –
O=c1[nH]cc(F)c(=O)[nH]1 [Compound 5-Fu, 5-fluorouracil, reference compound] | 20 ± 1.25 µM | 29.6 ± 3.21 µM | 11.7 ± 2.37 µM | – | 18.3 ± 0.76 µM | – | – | – | – | – | – | – | –
COc1cc(N(Cc2ccc(F)cc2)S(=O)(=O)c2ccc3c(c2)CCC(=O)N3)cc(OC)c1OC [Compound D3, N-(4-fluorobenzyl)-2-oxo-N-(3,4,5-trimethoxyphenyl)-1,2,3,4-tetrahydroquinoline-6-sulfonamide] | 5.31 ± 1.08 µM | 7.54 ± 1.48 µM | 3.87 ± 0.12 µM | 18.2 ± 4.11 µM | 6.31 ± 1.21 µM | 108 to 110 °C | strong anti-proliferative activity | – | – | – | – | – | –
COc1cc(N(Cc2ccc(Cl)cc2)S(=O)(=O)c2ccc3c(c2)CCC(=O)N3)cc(OC)c1OC [Compound D4, N-(4-chlorobenzyl)-2-oxo-N-(3,4,5-trimethoxyphenyl)-1,2,3,4-tetrahydroquinoline-6-sulfonamide] | 6.35 ± 2.03 µM | 9.67 ± 2.1 µM | 4.21 ± 0.5 µM | 8.49 ± 1.77 µM | 4.12 ± 0.55 µM | 119 to 121 °C | strong anti-proliferative activity | – | – | – | – | – | –
COc1cc(N(Cc2ccc(C)cc2)S(=O)(=O)c2ccc3c(c2)CCC(=O)N3)cc(OC)c1OC [Compound D5, N-(4-methylbenzyl)-2-oxo-N-(3,4,5-trimethoxyphenyl)-1,2,3,4-tetrahydroquinoline-6-sulfonamide] | 3.05 ± 0.19 µM | 1.34 ± 0.3 µM | 1.13 ± 0.01 µM | 2.96 ± 0.13 µM | 2.36 ± 0.11 µM | 128 to 130 °C | strong anti-proliferative activity | – | – | – | – | – | –
COc1cc(N(Cc2ccc(N(C)C)cc2)S(=O)(=O)c2ccc3c(c2)CCC(=O)N3)cc(OC)c1OC [Compound D6, N-(4-(dimethylamino)benzyl)-2-oxo-N-(3,4,5-trimethoxyphenyl)-1,2,3,4-tetrahydroquinoline-6-sulfonamide] | 5.31 ± 1.02 µM | 3.63 ± 0.98 µM | 2.05 ± 0.11 µM | 2.42 ± 0.46 µM | 4.74 ± 1.56 µM | 127 to 129 °C | strong anti-proliferative activity | – | – | – | – | – | –
COc1cc(N(Cc2cccc(C)c2)S(=O)(=O)c2ccc3c(c2)CCC(=O)N3)cc(OC)c1OC [Compound D7, N-(3-methylbenzyl)-2-oxo-N-(3,4,5-trimethoxyphenyl)-1,2,3,4-tetrahydroquinoline-6-sulfonamide] | 30.2 ± 2.56 µM | 36.5 ± 3.59 µM | 28.2 ± 4.26 µM | 35 ± 6.74 µM | 44.3 ± 4.31 µM | 120 to 122 °C | poor antiproliferative activity | – | – | – | – | – | –
COc1cc(N(Cc2ccccc2F)S(=O)(=O)c2ccc3c(c2)CCC(=O)N3)cc(OC)c1OC [Compound D8, N-(2-fluorobenzyl)-2-oxo-N-(3,4,5-trimethoxyphenyl)-1,2,3,4-tetrahydroquinoline-6-sulfonamide] | 60.2 ± 4.21 µM | 21.6 ± 3.56 µM | 17.5 ± 1.33 µM | > 100 µM | 50.9 ± 6.77 µM | 138 to 140 °C | poor antiproliferative activity | – | – | – | – | – | –
COc1cc(N(Cc2ccccc2Cl)S(=O)(=O)c2ccc3c(c2)CCC(=O)N3)cc(OC)c1OC [Compound D9, N-(2-chlorobenzyl)-2-oxo-N-(3,4,5-trimethoxyphenyl)-1,2,3,4-tetrahydroquinoline-6-sulfonamide] | 36.2 ± 4.21 µM | 16.9 ± 4.11 µM | 12.2 ± 2.89 µM | 31.7 ± 4.55 µM | 27.5 ± 3.28 µM | 117 to 119 °C | poor antiproliferative activity | – | – | – | – | – | –
COc1cc(N(Cc2ccc(Cl)c(Cl)c2)S(=O)(=O)c2ccc3c(c2)CCC(=O)N3)cc(OC)c1OC [Compound D10, N-(3,4-dichlorobenzyl)-2-oxo-N-(3,4,5-trimethoxyphenyl)-1,2,3,4-tetrahydroquinoline-6-sulfonamide] | 48.3 ± 6.64 µM | 75.3 ± 10.3 µM | 51.2 ± 13.5 µM | > 100 µM | – | 123 to 125 °C | – | – | – | – | – | – | –
COc1cccc(CN(c2cc(OC)c(OC)c(OC)c2)S(=O)(=O)c2ccc3c(c2)CCC(=O)N3)c1 [Compound D12, N-(3-methoxybenzyl)-2-oxo-N-(3,4,5-trimethoxyphenyl)-1,2,3,4-tetrahydroquinoline-6-sulfonamide] | 56.3 ± 2.15 µM | 54.6 ± 8.15 µM | 48.2 ± 7.46 µM | – | 64.1 ± 7.56 µM | 121 to 123 °C | poor antiproliferative activity | – | – | – | – | – | –
COc1ccc(CN(c2cc(OC)c(OC)c(OC)c2)S(=O)(=O)c2ccc3c(c2)CCC(=O)N3)cc1 [Compound D13, N-(4-methoxybenzyl)-2-oxo-N-(3,4,5-trimethoxyphenyl)-1,2,3,4-tetrahydroquinoline-6-sulfonamide] | 3.61 ± 1.02 µM | 1.34 µM | 0.94 ± 0.31 µM | 1.57 ± 0.25 µM | 1.82 ± 0.97 µM | 122 to 124 °C | strongest anti-proliferative activity; also recorded: strong anti-proliferative activity | 6.74 µM | 1.46 ± 0.11 µM | – | – | – | –
COc1ccc(CN(c2cc(OC)c(OC)c(OC)c2)S(=O)(=O)c2ccc3c(c2)CCC(=O)N3)cc1OC [Compound D14, N-(3,4-dimethoxybenzyl)-2-oxo-N-(3,4,5-trimethoxyphenyl)-1,2,3,4-tetrahydroquinoline-6-sulfonamide] | 66.5 ± 7.81 µM | > 100 µM | 87.8 ± 15.2 µM | 49.3 ± 12.5 µM | – | 116 to 118 °C | poor antiproliferative activity | – | – | – | – | – | –
COc1ccc(OC)c(CN(c2cc(OC)c(OC)c(OC)c2)S(=O)(=O)c2ccc3c(c2)CCC(=O)N3)c1 [Compound D15] | > 100 µM | 86.4 ± 14.2 µM | > 100 µM | – | 75.4 ± 15.4 µM | 127 to 129 °C | poor antiproliferative activity | – | – | – | – | – | –
COc1cc(CN(c2cc(OC)c(OC)c(OC)c2)S(=O)(=O)c2ccc3c(c2)CCC(=O)N3)cc(OC)c1OC [Compound D16, 2-oxo-N-(3,4,5-trimethoxybenzyl)-N-(3,4,5-trimethoxyphenyl)-1,2,3,4-tetrahydroquinoline-6-sulfonamide] | 4.25 ± 0.87 µM | 4.91 ± 0.76 µM | 2.08 ± 0.24 µM | 7.34 ± 1.44 µM | 5.48 ± 1.23 µM | 131 to 133 °C | – | – | – | – | – | – | –
N-benzyl-2-oxo-N-(3,4,5-trimethoxyphenyl)-1,2,3,4-tetrahydroquinoline-7-sulfonamide [Compound D1] | – | – | – | – | – | – | strong anti-proliferative activity | – | 13.5 ± 2.15 µM | 20.7 ± 3.12 µM | 25.9 ± 0.98 µM | 14.2 ± 1.26 µM | 9.87 ± 2.49 µM
